Results: PubChem BioAssay AID449764 (Southern Research Specialized Biocontainment Screening …, 2010)

Tested on: Mycobacterium tuberculosis H37Rv growth inhibition, no glycerol
Assay: Confirmatory growth inhibition assay, Mycobacterium tuberculosis H37Rv, absence of glycerol (AID 449764);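 further: growth read after 7 days of incubation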
Conditions: for IC90: measured here: IC90 growth inhibition

| SMILES | IC50 [µM] | IC90 [µM] |
| --- | --- | --- |
| CC1CCCCC1NC(=O)c1ccc2c(c1)[nH]c(=O)n2C1CCCC1 (centres undefined) | 9.65 | 14.1 |
| COc1ccc(/C=C2\CCC/C(=C\C=N\N(C)C)C2=O)cc1 | 12.4 | 17.8 |
| O=C(CSc1ccccn1)Nc1nonc1[N+](=O)[O-] | 5.73 | 6.24 |
| COc1ccc(-c2cc(C3CCN(Cc4cccc(C(F)(F)F)c4)CC3)[nH]n2)cc1 | 13.3 | 24.9 |
| CCC(=O)Oc1ccc(C(=O)Nc2ccc3c(c2)C(=O)N(C2CCCCC2)C3=O)cc1 | 24.1 | 28.3 |
| NCCCn1c(C(=O)c2ccc(Cl)cc2)c2ccc([N+](=O)[O-])cc2[n+]1[O-] | 34 | 44.2 |
| CCOc1cc(NC(=O)CCl)c(OCC)cc1NC(C)=O | 0.95 | 51.8 |
| CNc1nc(SCc2ccccc2Cl)nc2c1CCCC2 | 0.45 | 1.21 |
| FC(F)(Cl)c1nnc2ccc(Cl)nn12 | 0.73 | 0.8 |
| Nc1[nH]n2c(=O)cc(-c3ccccc3)nc2c1N=Nc1ccc2c(c1)OCO2 | 33.2 | 50.2 |
| Cc1ccc(CN2CC(C(=O)OCc3ccccc3Cl)CC2=O)cc1 (centres undefined) | 11.1 | 29.6 |
| NC(=O)CSc1nnc(COc2ccc3ccccc3c2)o1 | 20.8 | 27.3 |
| COC(=O)CCn1c(C)cc(C(=O)COc2ccccc2C(N)=O)c1C | 10.9 | 14.8 |
| COc1ccccc1Nc1nc(N)nc(CCl)n1 | 4.83 | 12.3 |
| Nc1n[nH]c(C2CC2)c1N=Nc1ccc(Cl)cc1 | 32.4 | 54.3 |
| O=c1cc(N=Nc2ccc(Cl)cc2)[nH]c(=O)[nH]1 | 78.9 | > 100 |
| COC(=O)c1ccc(-c2ncc(-c3cccc4ccccc34)o2)cc1 | 80.3 | > 100 |
| CN(C)c1ccc(CNC2C3CC4CC(C3)CC2C4)cc1 (centres undefined) | 12.2 | 17 |
| Cc1ccnc(NC(=O)c2cc3ccccc3o2)c1 | – | > 50 |
| COC(=O)c1ccc(/C=C/c2c(-c3ccsc3)oc3ccc(N4CCOCC4)cc23)cc1 | 30.6 | 53.6 |
| OC(CN1CCCCC1)Cn1c2ccc(Cl)cc2c2cc(Cl)ccc21 (centres undefined) | 11.2 | 12.5 |
| N/C(=N\NC(=O)c1sccc1OCc1ccc(Cl)cc1Cl)c1ccccn1 | 32.3 | 39.4 |
| CC(=O)O[C@H]1C[C@@]2(C)[C@@H](C[C@@H](O)[C@H]3[C@@]4(C)CC[C@@H](O)[C@@H](C)[C@@H]4CC[C@@]32C)/C1=C(\CCC=C(C)C)C(=O)O | 2.94 | 6.55 |

| SMILES | IC50 [µM] | IC90 [µM] |
| --- | --- | --- |
| Cc1nc(N2CCC(C)CC2)c2oc3ccccc3c2n1 | 22.6 | 30.3 |
| COc1ccc(OC)c(CN2CCN(C(=O)CNC(=O)c3ccc(C(C)(C)C)cc3)CC2)c1 | 63.8 | 91.1 |
| Cn1ncnc2c(=O)n(C)c(=O)nc1-2 | 2.84 | 4.51 |
| CCOC(=O)CSc1nc(N)c(C(=O)Nc2ccc(N(C)C)cc2)s1 | 4.23 | 9.77 |
| COc1cc(NC(=O)c2ccc(COc3ccccc3Br)o2)cc(OC)c1OC | 67 | > 100 |
| CCCn1c(N2CCN(Cc3ccc(Cl)cc3)CC2)nc2ccccc21 | 25.2 | 38 |
| Cn1nc(C(C)(C)C)cc1NC(=O)Nc1cc(Cl)cc(Cl)c1 | 18.2 | 25.6 |
| CC(Oc1cc2oc(=O)c3c(c2cc1Cl)CCCC3)C(=O)NCc1ccccn1 (centres undefined) | – | > 100 |
| NNC(=S)NCc1ccc2c(c1)OCO2 | 99.3 | > 100 |
| COC(=O)C1CC(=O)N(c2ccc(OCc3ccccc3Cl)cc2)C1 (centres undefined) | 1.26 | 4.8 |
| COC(=O)CCCCC1SCC(NC(=O)c2ccccc2)C1=O (centres undefined) | 36.9 | 49.8 |
| COC(=O)c1ccc(COC(=O)CCc2nc(-c3ccccc3)c(-c3ccccc3)o2)cc1 | 44.9 | > 100 |
| CCCCCCCCn1sccc1=O | 2.06 | 2.83 |
| CCN1CCN(CCCNC(=O)c2ccc(/C=C3/Oc4ccccc4N(Cc4cccc(C)c4)C3=O)cc2)CC1 | 45.2 | 48.1 |
| O=[N+]([O-])c1ccc(Sc2cc[n+]([O-])c3ccccc23)c([N+](=O)[O-])c1 | 40.5 | 56.1 |
| CCCC(NCC(O)COc1ccc(-c2ccccc2)cc1)c1ccccc1 (centres undefined) | 12.8 | 14.7 |
| Cc1cc(Nc2cc(Cl)nc(Sc3ccc(NC(=O)C4CC4)cc3)n2)n[nH]1 | 43.2 | 59.2 |
| COc1ccc(N=c2cc(-c3ccc(O)cc3)oc3ccccc23)cc1 | 23.3 | 26.5 |
| CC(C)C[C@H](NC(=O)c1nc[nH]c1C(=O)NC1CCN(C(=O)OC(C)(C)C)CC1)C(=O)OCc1ccccc1 | 21.8 | 29.6 |
| COc1ccc(Cl)cc1C(=O)O/N=C(\N)c1ccccn1 | 76.4 | > 100 |
| O=C(C/C=N\OCc1ccc([N+](=O)[O-])cc1)Nc1ccc(F)cc1F | 82.9 | > 100 |
| Cn1c(NC(=S)Nc2ccccc2)nc2ccccc21 | 5.8 | 6.33 |
| Cc1ccc(C)c(S(=O)(=O)N2CCC(c3nc4c(nnn4Cc4ccc5c(c4)OCCO5)c(=O)[nH]3)CC2)c1 | 24.2 | > 100 |

| SMILES | IC50 [µM] | IC90 [µM] |
| --- | --- | --- |
| CCOC(=O)C(C)Sc1nc(-c2cccs2)ccc1C#N (centres undefined) | 44.2 | 50.3 |
| COc1ccc(CN2CCCC(C(=O)c3ccc(SC)cc3)C2)cc1Cn1cccn1 (centres undefined) | 25.2 | 28.2 |
| CCC(=O)N1c2ccc(S(=O)(=O)CCC(=O)N3CCn4c3nc3ccccc34)cc2CC1C (centres undefined) | 23.4 | 27.5 |
| CC1=CC(=O)C(C(C)C)=C/C1=N/OS(=O)(=O)c1ccccc1 | 4.28 | 7.65 |
| Cc1cc(=O)oc2c(C)c(OCC(=O)N3CCN(C(=O)C4COc5ccccc5O4)CC3)ccc12 (centres undefined) | 77.1 | > 100 |
| Cc1ccc(C(=O)Sc2cccccc2=O)cc1 | 1.53 | 2.12 |
| CC(C)OC(=O)c1ccc(NC(=S)NC(=O)c2cncc(Br)c2)cc1 | – | > 100 |
| CCCCC(=O)/C=C/n1c(=S)oc2ccccc21 | – | > 100 |
| CCOC(=O)/C(=N/Nc1ccc(OC)cc1)N1CCCc2ccccc21 | 95.3 | > 100 |
| NNC(=S)Nc1ccccc1Cl | 83.8 | 93 |
| O=C(CSc1nnnn1-c1ccc2c(c1)OCCO2)OC1CCCCC1 | 22.8 | 25.7 |
| CC[n+]1c(/C=C/N(C)c2ccccc2)n(-c2ccccc2)c2ccc(-c3nc4ccccc4s3)cc21 | 1.13 | 1.36 |
| C#CCn1c(=NC(=O)c2cc(Cl)sc2Cl)sc2cc(S(N)(=O)=O)ccc21 | 12 | 34.1 |
| CCOC(=O)c1c(C)[nH]c(N=Nc2ccc(OC)cc2)c1C | 11.3 | > 25 |
| CN1C2CCC1/C(=C/c1ccccn1)C(=O)/C2=C\c1ccccn1 | 23.4 | 26.8 |
| Cc1ccc(-c2cc(-c3ccccc3C)[nH]n2)c(O)c1 | 38.4 | > 100 |
| COc1ccc(/C=N/OCC(=O)OCC(=O)N(C)c2ccccc2)cc1 | 25.9 | 51.8 |
| O=C(/C=C/c1c(F)cccc1Cl)c1ccc(F)cc1 | 46.2 | 73 |
| Cc1ccc(/C=C(\NC(=O)c2ccc(C)cc2)c2nc(=S)[nH][nH]2)cc1 | 45.6 | 49.5 |
| CC(OC(=O)c1cc(Cl)ccc1[N+](=O)[O-])C(=O)NC(C)c1ccc(F)cc1 (centres undefined) | 27.6 | > 100 |
| Cc1c(C(=O)N(C)C)sc2nc(-c3ccccn3)[nH]c(=O)c12 | 19.5 | 31.4 |
| Cc1ccc(NCCC(=O)c2ccc(Br)cc2)cc1 | 26.4 | 43.8 |
| O=C(CCl)NN=C(c1ccccc1)c1ccccc1 | 1.32 | 2.09 |

| SMILES | IC50 [µM] | IC90 [µM] |
| --- | --- | --- |
| O=[N+]([O-])c1ccc(O)c(-c2cc(C(F)(F)F)nc(-c3ccccc3)n2)c1 | 20.4 | 22.1 |
| CCOC(=O)C1=C(C)NC(SCC(=O)Nc2nc(C)cs2)=C(C#N)C1c1cccs1 (centres undefined) | 31.3 | 49.8 |
| c1ccc2sc(Sc3ncnc4sccc34)nc2c1 | 11.4 | 12.9 |
| Nc1ccc(C(=O)OCCCc2nc3cc4ccccc4cc3[nH]2)cc1 | 37.2 | 59.3 |
| CCCOc1ccc2c(c1)C(=NN=C(N)N)c1cc(OCCC)ccc1-2 | 11.1 | 18.1 |
| Cc1cc(/C=C\c2ccc3cc(N(C)C)ccc3[n+]2C)c(C)n1-c1ccccc1 | 3.26 | 4.49 |
| N#CC(C#N)=c1ccc2c(c1)N1C3=C(CCCC3)CC3CCCCC31N=2 (centres undefined) | 12.5 | 13.5 |
| O=C1c2ccccc2CC1Sc1nnc(-c2ccncc2)o1 (centres undefined) | – | > 100 |
| O=C(c1cc2cc(F)ccc2[nH]1)N(Cc1cccnc1)CC1CCCN(C2CCCCC2)C1 (centres undefined) | 42.6 | 46.1 |
| COc1ccc(C2=NN(C(=O)COC(=O)c3ccc(S(C)(=O)=O)c([N+](=O)[O-])c3)C(c3ccco3)C2)cc1 (centres undefined) | 18.3 | 26.9 |
| CC(C)c1ccc2c(c1)CCC1C(C)(CN)CCCC21C (centres undefined) | 17.7 | 26.7 |
| CSc1ccccc1OCc1cc(C(=O)N2CCC(Oc3cccnc3)CC2)no1 | 28.3 | 37.3 |
| C#CCOc1ccc2c(c1)c(C(C)=O)c(C)n2Cc1ccccc1 | – | > 100 |
| COc1ccc(C(=O)C2CCCN(C3CSCCSC3)C2)c(C)c1 (centres undefined) | 33.5 | 44.9 |
| COc1ccc(N/N=C(/N=Nc2nc(C)cc(=O)[nH]2)c2ccccc2)cc1 | 5.64 | 6.4 |
| O=C(N/N=C\c1ccc[nH]1)c1cncc(Br)c1 | 45.3 | 50.8 |
| COc1ccc(C(=O)OCCNC(=O)c2c(Cl)nc3ccccn23)cc1 | 4.19 | 10.6 |
| CCOC(=O)CSC1=C(C#N)C(c2ccc(C)cc2)C2=C(CCCC2=O)N1 (centres undefined) | 46.6 | > 100 |
| CCOC(=O)C1=NOC(CNc2ncc(C(F)(F)F)cc2Cl)C1 (centres undefined) | 11.3 | 14.4 |
| O=C(OCC(=O)N1CCCCC1)c1cc2ccccc2cc1O | 2.95 | 3.42 |
| Cc1ccn2nc(S(=O)(=O)Nc3c(F)cccc3F)nc2n1 | 9.62 | 11.5 |
